Data as given in patent publication US20150105252A1, “SUBSTITUTED PYRAZOLES AS HERBICIDES” (E I DU PONT DE NEMOURS AND COMPANY, priority 2013, published 2015).

What was measured:
[1] = test system: barnyardgrass; assay: Test A preemergence; assay type: in vivo, Echinochloa crus-galli; conditions: preemergence
Method in brief: (§1)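 Growth medium: loam soil blended with sand. Preemergence treatment used a directed soil spray right after planting; postemergence treatment targeted seedlings at one to two leaves (2–10 cm height). Response was judged by eye relative to untreated plants about 10 days later on a 0–100 control scale.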

[2] = test system: barnyardgrass; assay: Test A postemergence; assay type: in vivo, Echinochloa crus-galli
Method in brief: as §1

[3] = test system: pigweed; assay: Test A postemergence; assay type: in vivo, Amaranthus retroflexus
Method in brief: as §1

[4] = test system: corn; assay: Test A postemergence; assay type: in vivo, Zea mays
Method in brief: as §1

[5] = test system: crabgrass, large; assay: Test C preemergence; assay type: in vivo, Digitaria sanguinalis; conditions: preemergence; for Plant response rating, Crabgrass, Large: 125 g ai/ha, scale 0 to 100, 0 = no effect, 100 = complete control
Method in brief: (§2)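 Visual rating, 0–100 scale (0 no effect, 100 complete control), vs untreated controls after 13–15 d greenhouse. Pre: seeds in loam/sand, treated at sowing. Post: plants in peat-based mix, 1- to 4-leaf (2–18 cm). Solvent + surfactant formulation, non-phytotoxic.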

[6] = test system: morningglory; assay: Test C preemergence; assay type: in vivo, Ipomoea coccinea; conditions: preemergence; for Plant response rating, Morningglory: 125 g ai/ha, scale 0 to 100, 0 = no effect, 100 = complete control
Method in brief: as §2

[7] = test system: nutsedge, yellow; assay: Test C preemergence; assay type: in vivo, Cyperus esculentus; conditions: preemergence; for Plant response rating, Nutsedge, Yellow: 125 g ai/ha, scale 0 to 100, 0 = no effect, 100 = complete control
Method in brief: as §2

[8] = test system: barnyardgrass; assay: Test C preemergence; assay type: in vivo, Echinochloa crus-galli; conditions: preemergence; for Plant response rating, Barnyardgrass: 125 g ai/ha, scale 0 to 100, 0 = no effect, 100 = complete control
Method in brief: as §2

[9] = test system: velvetleaf; assay: Test C preemergence; assay type: in vivo, Abutilon theophrasti; conditions: preemergence; for Plant response rating, Velvetleaf: 125 g ai/ha, scale 0 to 100, 0 = no effect, 100 = complete control
Method in brief: as §2

[10] = test system: ryegrass, Italian; assay: Test C postemergence; assay type: in vivo, Lolium multiflorum
Method in brief: as §2

[11] = test system: soybean; assay: Test C postemergence; assay type: in vivo, Glycine max; conditions: for Soybean plant response rating / Plant response rating, Soybean: postemergence
Method in brief: as §2

[12] = test system: oilseed rape; assay: Test C postemergence; assay type: in vivo, Brassica napus; conditions: for Oilseed Rape plant response rating / Plant response rating, Oilseed Rape: postemergence; for Oilseed Rape plant response rating: 62 g ai/ha, scale 0 to 100
Method in brief: as §2

[13] = test system: oat, wild; assay: Test C postemergence; assay type: in vivo, Avena fatua; conditions: for Plant response rating (scale of 0 to 100 where 0 is no effect and 100 is complete control), Oat, Wild: Postemergence, 31 g ai/ha, visually evaluated after 13 to 15 days; for Oat, Wild plant response rating / Plant response rating, Oat, Wild: postemergence; for Oat, Wild plant response rating: 62 g ai/ha, scale 0 to 100
Method in brief: as §2

[14] = test system: kochia; assay: Test C postemergence; assay type: in vivo, Kochia scoparia; conditions: for Plant response rating (scale of 0 to 100 where 0 is no effect and 100 is complete control), Kochia: Postemergence, 31 g ai/ha, visually evaluated after 13 to 15 days; for Kochia plant response rating / Plant response rating, Kochia: postemergence; for Kochia plant response rating: 62 g ai/ha, scale 0 to 100
Method in brief: as §2

[15] = 500 g ai/ha, visual injury after approx. 10 days, 0 to 100 scale (0 no effect, 100 complete control)
[16] = Postemergence, 500 g ai/ha, 0 to 100 scale (0 no effect, 100 complete control)
[17] = postemergence, 125 g ai/ha, about 10 days, visual rating on 0 to 100 scale (0 no effect, 100 complete control)
[18] = 31 g ai/ha, visual rating, scale 0 to 100 (0 no effect, 100 complete control), 13 to 15 days
[19] = 62 g ai/ha, scale 0 to 100 (0 no effect, 100 complete control), 13 to 15 days
[20] = 250 g ai/ha, scale 0 to 100, 0 is no effect, 100 is complete control
[21] = Postemergence, 31 g ai/ha, visually evaluated after 13 to 15 days
[22] = postemergence, 250 g ai/ha, scale 0 to 100 (0 no effect, 100 complete control)
[23] = postemergence, 125 g ai/ha, scale 0 to 100, 0 no effect, 100 complete control
[24] = 250 g ai/ha, scale 0 to 100 (0 no effect, 100 complete control)
[25] = 125 g ai/ha, scale 0 to 100, 0 no effect, 100 complete control

In the case of `CCCNC(=O)c1cc(OCC)n(Cc2ccnc(OC(F)F)c2)n1` [Compound 136], the “Barnyardgrass plant response rating” value ([1]; 125 g ai/ha, visual injury, 0 to 100 scale, approx. 10 days) is reported as 100, the “Barnyardgrass plant response rating” value [1, 15] is reported as 100 and the “Barnyardgrass plant response rating” value [2, 16] is reported as 90. For the same molecule, the “Barnyardgrass plant response rating” value [2, 17] was 70, the “Pigweed plant response rating” value [3, 16] was 100 and the “Pigweed plant response rating” value [3, 17] was 80. For the same molecule, the “Corn plant response rating” value [4, 16] was 100, the “Corn plant response rating” value [4, 17] was 60 and the “Crabgrass, Large plant response rating” value [5, 18] was 100. The “Crabgrass, Large plant response rating” value [5, 19] was 100, the “Plant response rating, Crabgrass, Large” value ([5]; 13 to 15 days) was 100 and the “Crabgrass, Large plant response rating” value [5, 20] was 100. The “Morningglory plant response rating” value [6, 18] was 100, the “Morningglory plant response rating” value [6, 19] was 100 and the “Plant response rating, Morningglory” value ([6]; 13 to 15 days) was 100. For the same molecule, the “Morningglory plant response rating” value [6, 20] was 100, the “Nutsedge, Yellow plant response rating” value [7, 18] was 30 and the “Nutsedge, Yellow plant response rating” value [7, 19] was 35. For the same molecule, the “Plant response rating, Nutsedge, Yellow” value ([7]; 13 to 15 days) was 50, the “Nutsedge, Yellow plant response rating” value [7, 20] was 85 and the “Barnyardgrass plant response rating” value ([8]; 31 g ai/ha, scale 0 to 100 (0 no effect, 100 complete control), 13 to 15 days) was 75. The “Barnyardgrass plant response rating” value [8, 19] was 100, the “Plant response rating, Barnyardgrass” value ([8]; 13 to 15 days) was 100 and the “Barnyardgrass plant response rating” value [8, 20] was 100. The “Velvetleaf plant response rating” value [9, 18] was 65, the “Velvetleaf plant response rating” value [9, 19] was 100 and the “Plant response rating, Velvetleaf” value ([9]; 13 to 15 days) was 100. For the same molecule, the “Velvetleaf plant response rating” value [9, 20] was 100, the “Plant response rating (scale of 0 to 100 where 0 is no effect and 100 is complete control), Ryegrass, Italian” value [10, 21] was 5 and the “Ryegrass, Italian plant response rating” value ([10]; postemergence, 62 g ai/ha, scale 0 to 100) was 5. For the same molecule, the “Plant response rating, Ryegrass, Italian” value [10, 22] was 30, the “Plant response rating, Ryegrass, Italian” value [10, 23] was 5 and the “Plant response rating (scale of 0 to 100 where 0 is no effect and 100 is complete control), Soybean” value [11, 21] was 90. The “Soybean plant response rating” value ([11]; 62 g ai/ha, scale 0 to 100) was 70, the “Plant response rating, Soybean” value [11, 24] was 95 and the “Plant response rating, Soybean” value [11, 25] was 95. The “Plant response rating (scale of 0 to 100 where 0 is no effect and 100 is complete control), Oilseed Rape” value [12, 21] was 60, the “Oilseed Rape plant response rating” value [12] was 60 and the “Plant response rating, Oilseed Rape” value [12, 24] was 85. The “Plant response rating, Oilseed Rape” value [12, 25] was 70, the “Plant response rating (scale of 0 to 100 where 0 is no effect and 100 is complete control), Oat, Wild” value [13] was 5 and the “Oat, Wild plant response rating” value [13] was 5. For the same molecule, the “Plant response rating, Oat, Wild” value [13, 24] was 45, the “Plant response rating, Oat, Wild” value [13, 25] was 10 and the “Plant response rating (scale of 0 to 100 where 0 is no effect and 100 is complete control), Kochia” value [14] was 90. For the same molecule, the “Kochia plant response rating” value [14] was 90, the “Plant response rating, Kochia” value [14, 24] was 90 and the “Plant response rating, Kochia” value [14, 25] was 90.
`CCCc1cc(C(=O)NC2CC2)nn1Cc1ccnc(OC(F)F)c1` [Compound 205] was tested, and the “Barnyardgrass plant response rating (0 to 100 scale, 0 is no effect, 100 is complete control)” value ([1]; 125 g ai/ha, visual injury approx. 10 days after treatment) was 90, the “Barnyardgrass plant response rating” value [1, 15] was 100 and the “Barnyardgrass plant response rating” value [2, 16] was 90. For the same molecule, the “Barnyardgrass plant response rating” value [2, 17] was 80, the “Pigweed plant response rating” value ([3]; Postemergence, 125 g ai/ha, 0 to 100 scale, 0 no effect, 100 complete control) was 100 and the “Pigweed plant response rating” value [3, 16] was 100. For the same molecule, the “Corn plant response rating” value [4, 16] was 100, the “Corn plant response rating” value [4, 17] was 70 and the “Crabgrass, Large plant response rating” value [5, 18] was 100. The “Crabgrass, Large plant response rating” value [5, 19] was 100, the “Plant response rating, Crabgrass, Large” value ([5]; 13 to 15 days) was 100 and the “Crabgrass, Large plant response rating” value [5, 20] was 100. For the same molecule, the “Morningglory plant response rating” value [6, 18] was 100, the “Morningglory plant response rating” value [6, 19] was 100 and the “Plant response rating, Morningglory” value ([6]; 13 to 15 days) was 100. The “Morningglory plant response rating” value [6, 20] was 100, the “Nutsedge, Yellow plant response rating” value [7, 18] was 40 and the “Nutsedge, Yellow plant response rating” value [7, 19] was 65. For the same molecule, the “Plant response rating, Nutsedge, Yellow” value ([7]; 13 to 15 days) was 75, the “Nutsedge, Yellow plant response rating” value [7, 20] was 90 and the “Barnyardgrass plant response rating” value [8, 18] was 85. The “Barnyardgrass plant response rating” value [8, 19] was 98, the “Plant response rating, Barnyardgrass” value ([8]; 13 to 15 days) was 100 and the “Barnyardgrass plant response rating” value [8, 20] was 100. The “Velvetleaf plant response rating” value [9, 18] was 55, the “Velvetleaf plant response rating” value [9, 19] was 100 and the “Plant response rating, Velvetleaf” value ([9]; 13 to 15 days) was 100. For the same molecule, the “Velvetleaf plant response rating” value [9, 20] was 100, the “Plant response rating, Ryegrass, Italian” value [10, 22] was 5 and the “Plant response rating, Ryegrass, Italian” value [10, 23] was 5. For the same molecule, the “Plant response rating, Soybean” value [11, 24] was 90, the “Soybean plant response rating” value [11, 25] was 70 and the “Oilseed Rape plant response rating” value [12] was 25. For the same molecule, the “Plant response rating, Oilseed Rape” value [12, 24] was 50, the “Plant response rating, Oilseed Rape” value [12, 25] was 50 and the “Plant response rating (scale of 0 to 100 where 0 is no effect and 100 is complete control), Oat, Wild” value [13] was 5. For the same molecule, the “Oat, Wild plant response rating” value [13] was 5, the “Plant response rating, Oat, Wild” value [13, 24] was 10 and the “Plant response rating, Oat, Wild” value [13, 25] was 5. The “Plant response rating (scale of 0 to 100 where 0 is no effect and 100 is complete control), Kochia” value [14] was 85, the “Kochia plant response rating” value [14] was 90 and the “Plant response rating, Kochia” value [14, 24] was 95. For the same molecule, the “Plant response rating, Kochia” value [14, 25] was 95.
